# Assay results: patent US9376418B2, “Substituted pyridine spleen tyrosine kinase (SYK) inhibitors” (Merck Sharp & Dohme Corp., priority 2012, dated 2016)
# pIC50: −log10 of the molar value.
# Biological target: T1, recombinant human GST-SYK (Homo sapiens, UniProt P43405)
# T1 construct: purchased Carna Biosciences 08-176
# Test: Homogeneous Time-Resolved Fluorescence (HTRF) assay for the recombinant human Syk enzyme
# Assay type: biochemical
# Settings: HTRF assay, recombinant human GST-SYK; IC50 given as class symbols; read-out: rhSYK Activity
# Procedure, shortened: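 GST-hSYK ([…]) was preincubated with inhibitor (0.1% DMSO final) for 10 minutes at room temperature in 15 mM Tris-HCl pH 7.5, 0.01% tween 20, 2 mM DTT. Biotinylated peptide (250 nM), 5 mM magnesium and 25 μM ATP started a 45-minute room-temperature reaction, read by time-resolved fluorescence.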
row,SMILES,pIC50
1,"Cc1cc(Nc2nccc(C(F)(F)F)n2)cc(-c2ccc(C(=O)NCCS(C)(=O)=O)nc2)c1 [Example 16.64, N-[2-(methylsulfonyl)ethyl]-5-(3-methyl-5-{[4-(trifluoromethyl)pyrimidin-2-yl]amino}phenyl)pyridine-2-carboxamide]",6.00 to 7.00
2,"Cc1cc(Nc2nccc(C(F)(F)F)n2)cc(-c2ccc(C(=O)N3CCN(CC(F)(F)F)CC3)nc2)c1 [Example 16.65, N-[3-methyl-5-(6-{[4-(2,2,2-trifluoroethyl)piperazin-1-yl]carbonyl}pyridin-3-yl)phenyl]-4-(trifluoromethyl)pyrimidin-2-amine]",6.00 to 7.00
3,"Cc1cc(Nc2nccc(C(F)(F)F)n2)cc(-c2ccc(CN3CCNC3=O)nc2)c1 [Example 17.1, 1-{[5-(3-Methyl-5-{[4-(trifluoromethyl)pyrimidin-2-yl]amino}phenyl)pyridin-2-yl]methyl}imidazolidin-2-one]",> 7.00
4,"Cc1cc(Nc2nccc(C(F)(F)F)n2)cc(-c2ccc(CNC(N)=O)nc2)c1 [Example 17.2, 1-{[5-(3-methyl-5-{[4-(trifluoromethyl)pyrimidin-2-yl]amino}phenyl)pyridin-2-yl]methyl}urea]",> 7.00
5,"CNC(=O)NCc1ccc(-c2cc(C)cc(Nc3nccc(C(F)(F)F)n3)c2)cn1 [Example 17.3, 1-methyl-3-{[5-(3-methyl-5-{[4-(trifluoromethyl)pyrimidin-2-yl]amino}phenyl)pyridin-2-yl]methyl}urea]",> 7.00

# Results, then the compound that gave them:
row,pIC50,SMILES
1,> 7.00,"CCC(C)(C#N)Nc1ccc(-c2cc(C)cc(Nc3nccc(C(F)(F)F)n3)c2)cn1 (stereo not shown) [Example 18.1, 2-Methyl-2-{[5-(3-methyl-5-{[4-(trifluoromethyl)pyrimidin-2-yl]amino}phenyl)pyridin-2-yl]amino}butanenitrile]"
2,6.00 to 7.00,"Cc1cc(Nc2nccc(C(F)(F)F)n2)cc(-c2ccc(NC(C)(C#N)C(C)(C)C)nc2)c1 (stereo not shown) [Example 18.3, 2,3,3-trimethyl-2-{[5-(3-methyl-5-{[4-(trifluoromethyl)pyrimidin-2-yl]amino}phenyl)pyridin-2-yl]amino}butanenitrile]"
3,6.00 to 7.00,"CCC(C)(C#N)Nc1ccc(-c2cc(C)cc(Nc3nccc(C(F)(F)F)n3)c2)cn1 (stereo not shown) [Example 18.4, 2-methyl-2-{[5-(3-methyl-5-{[4-(trifluoromethyl)pyrimidin-2-yl]amino}phenyl)pyridin-2-yl]amino}butanenitrile]"
4,> 7.00,"Cc1cc(Nc2nccc(C(F)(F)F)n2)cc(-c2ccc(NC(C)(CC(F)(F)F)C(=O)O)nc2)c1 (stereo not shown) [Example 18.5, 4,4,4-Trifluoro-N-[5-(3-methyl-5-{[4-(trifluoromethyl)pyrimidin-2-yl]amino}phenyl)pyridin-2-yl]isovaline]"
5,> 7.00,CCC(C)(Nc1ccc(-c2cc(C)cc(Nc3nccc(C(F)(F)F)n3)c2)cn1)C(=O)O (stereo not shown) [Example 18.6]
6,> 7.00,"Cc1cc(Nc2nccc(C(F)(F)F)n2)cc(-c2ccc(NC(C)(CC(F)(F)F)c3nnn[nH]3)nc2)c1 (stereo not shown) [Example 18.7, N-[3-methyl-5-(6-{[4,4,4-trifluoro-2-(1H-tetrazol-5-yl)butan-2-yl]amino}pyridin-3-yl)phenyl]-4-(trifluoromethyl)pyrimidin-2-amine]"
7,> 7.00,"Cc1cc(Nc2nccc(C(F)(F)F)n2)cc(-c2ccc(NC(C)(C)c3nnn[nH]3)nc2)c1 [Example 18.8, N-[3-methyl-5-(6-{[1-methyl-1-(1H-tetrazol-5-yl)ethyl]amino}pyridin-3-yl)phenyl]-4-(trifluoromethyl)pyrimidin-2-amine]"
8,> 7.00,"Cc1cc(Nc2nccc(C(F)(F)F)n2)cc(-c2ccc(NC(C)(c3nnn[nH]3)C(C)(C)C)nc2)c1 (stereo not shown) [Example 18.9, N-[3-methyl-5-(6-{[1,2,2-trimethyl-1-(1H-tetrazol-5-yl)propyl]amino}pyridin-3-yl)phenyl]-4-(trifluoromethyl)pyrimidin-2-amine]"
